# From PubChem BioAssay AID2060511 (Molecular Pharmacology Branch, DTP, NCI, 2025)
# pIC50: −log10 of the molar value.
# System: 422866-222-R5-J1-PDC spheroids with HUVEC/MSC, viability
# Assay: Anticancer human tumor 422866-222-R5-J1-PDC patient-derived pancreatic adenocarcinoma cell line growth inhibition [GQUAD]
# Details: for pIC50: curve of first compound; for viability, T/C: stronger effect = lower value
# Description: DNA G-quadruplex Stabilizer Agents in Combinations in Complex Spheroids
# A high-throughput screen of multi-cell type tumor spheroids was designed to identify active combinations of DNA G-quadruplex stabilizer agents and targeted small molecules. Complex spheroids include a stromal component modeled by human endothelial cells (HUVEC) and fibroblasts modeled by human mesenchymal stem cells (MSCs). The concentration ranges selected for each drug and investigational agent were based upon clinically achievable concentrations if the clinical Cmax of the agent was known.
# Compounds. The drugs and investigational agents: pidnarulex (CX-5461; NSC782164), APTO-253 (NSC789042), BRACO-19 (NSC847499), peposertib (NSC802822), ceralasertib (NSC780249), elimusertib (NSC800525), camonsertib (NSC841442), AZD-1390 (NSC803789), olaparib (NSC753686), talazoparib (NSC767125), ART-558 (NSC835418), sotorasib (NSC818433), MRTX-1133 (NSC836407), SN-38 (NSC673596), topotecan (NSC609699), etoposide (NSC141540), doxorubicin (NSC123127), gemcitabine (NSC613327), 5-fluorouracil (NSC19893), paclitaxel (NSC125973), vemurafenib (NSC761431), panobinostat (NSC761190), R-306465 (JNJ-16241199; NSC773264), adavosertib (NSC754352), TP-3654 (NSC805149), carboplatin (NSC241240), KSQ-4279 (NSC840948), and staurosporine (NSC755774) were obtained from the National Cancer Institute (NCI) Developmental Therapeutics Program Chemical Repository (34). The FDA-approved anticancer drug set is available from the NCI Developmental Therapeutics Program. […] The stock solutions were prepared in dimethyl sulfoxide (DMSO, Sigma-Aldrich, St. Louis, MO, cat. D2650) at 800-fold the tested concentration and stored at -70 degrees C prior to their use. All drugs and investigational agents were tested over a range starting from a high concentration at or near the clinical Cmax and decreasing in half-log increments. If the clinical Cmax for an agent had not been determined, the highest concentration tested was 10 microM.
# 2.3 Cell Culture. All cells were maintained in an incubator at 37 degrees C and 5% CO2 with 95% humidity. The PDC lines were cultured according to standard operating procedures established by the NCI PDMR. All PDCs were thawed and cultured in Matrigel-coated flasks prepared with a working solution of 1X Ham's F-12 nutrient mix, without supplementation (Invitrogen, cat. 11765054), 100 U/mL penicillin-streptomycin (Invitrogen, cat. 15140122), and 2.5% Matrigel (Corning Inc., cat. 354248) for the first three passages. The 857933-349-R-J2-PDC line was cultured in 6C/Colon 1B media, which includes advanced DMEM/F-12 (Thermo Fisher Scientific, cat. 12634028), 10 mM HEPES (Thermo Fisher Scientific, cat. 15630080), 1X GlutaMAX supplement (Thermo Fisher Scientific, cat. 35050061), 0.1 mg/mL primocin (InvivoGen, cat. ant-pm-2), 10% defined fetal bovine serum, heat inactivated (HyClone Laboratories Inc., cat. SH30070.03HI), 50% L-WRN conditioned media (ATCC, cat. CRL-3276), 1.25 mM N-Acetyl-L-cysteine (Sigma-Aldrich, cat. A9165), 10 mM nicotinamide (Sigma-Aldrich, cat. N0636), 1X B-27 supplement (Thermo Fisher Scientific, cat. 17504044), 1X N-2 supplement (Thermo Fisher Scientific, cat. 17502048), 10 microM Y-27632 dihydrochloride (Tocris Bioscience, cat. 1254), and 50 ng/mL human EGF recombinant protein (Thermo Fisher Scientific, cat. PHG0311). The 485176-168-R4-J1-PDC line was cultured in Panc media, which includes all 6C/Colon 1B media components plus 100 ng/mL human FGF-10 (Thermo Fisher Scientific, cat. 100-26), 500 nM SB-431542 (Selleckchem, cat. S1067), and gastrin (Tocris, cat. 3006).
# […]
# [1] = second compound 0.0316 µM, first compound 0.0316 µM
# [2] = second compound 0.0316 µM, first compound 0.1 µM
# [3] = second compound 0.0316 µM, first compound 0.316 µM
# [4] = second compound 0.0316 µM, first compound 1 µM
# [5] = second compound 0.0316 µM, first compound 3.16 µM
# [6] = second compound 0.0316 µM, first compound 10 µM
# [7] = second compound 0.1 µM, first compound 0.0316 µM
# [8] = second compound 0.1 µM, first compound 0.1 µM
# [9] = second compound 0.1 µM, first compound 0.316 µM
# [10] = second compound 0.1 µM, first compound 1 µM
# [11] = second compound 0.1 µM, first compound 3.16 µM
# [12] = second compound 0.1 µM, first compound 10 µM
# [13] = second compound 0.316 µM, first compound 0.0316 µM
# [14] = second compound 0.316 µM, first compound 0.1 µM
# [15] = second compound 0.316 µM, first compound 0.316 µM
# [16] = second compound 0.316 µM, first compound 1 µM
# [17] = second compound 0.316 µM, first compound 3.16 µM
# [18] = second compound 0.316 µM, first compound 10 µM
# [19] = second compound 1 µM, first compound 0.0316 µM
# [20] = second compound 1 µM, first compound 0.1 µM
# [21] = second compound 1 µM, first compound 0.316 µM
# [22] = second compound 1 µM, first compound 1 µM
# [23] = second compound 1 µM, first compound 3.16 µM
# [24] = second compound 1 µM, first compound 10 µM
# [25] = second compound 3.16 µM, first compound 0.0316 µM
# [26] = second compound 3.16 µM, first compound 0.1 µM
# [27] = second compound 3.16 µM, first compound 0.316 µM
# [28] = second compound 3.16 µM, first compound 1 µM
# [29] = second compound 3.16 µM, first compound 3.16 µM
# [30] = second compound 3.16 µM, first compound 10 µM
# [31] = second compound 10 µM, first compound 0.0316 µM
# [32] = second compound 10 µM, first compound 0.1 µM
# [33] = second compound 10 µM, first compound 0.316 µM
# [34] = second compound 10 µM, first compound 1 µM
# [35] = second compound 10 µM, first compound 3.16 µM
# [36] = second compound 10 µM, first compound 10 µM
# 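Also: spheroids exposed to compounds for seven days before reading.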
# 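For viability, T/C in this document: percent viability relative to DMSO vehicle control taken as 100%.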
smiles,measurement,setting,value
C#Cc1c(F)ccc2cc(O)cc(-c3ncc4c(N5CC6CCC(C5)N6)nc(OCC56CCCN5CC(F)C6)nc4c3F)c12 (centres undefined) + Cc1cnc(CNC(=O)c2c(=O)c3ccc(N4CCCN(C)CC4)nc3n3c2sc2ccccc23)cn1,pIC50,second compound 0.0316 µM,5.75
same,pIC50,second compound 0.1 µM,5.85
same,pIC50,second compound 0.316 µM,5.49
same,pIC50,second compound 1 µM,5.46
same,pIC50,second compound 3.16 µM,5.63
same,pIC50,second compound 10 µM,5.87
same,"viability, T/C",[1],95.9%
same,"viability, T/C",[2],87%
same,"viability, T/C",[3],72%
same,"viability, T/C",[4],57.1%
same,"viability, T/C",[5],43%
same,"viability, T/C",[6],29.5%
same,"viability, T/C",[7],98.4%
same,"viability, T/C",[8],97.9%
same,"viability, T/C",[9],69.7%
same,"viability, T/C",[10],55.3%
same,"viability, T/C",[11],42.5%
same,"viability, T/C",[12],30.7%
same,"viability, T/C",[13],97%
same,"viability, T/C",[14],79.4%
same,"viability, T/C",[15],75.4%
same,"viability, T/C",[16],65.6%
same,"viability, T/C",[17],49.8%
same,"viability, T/C",[18],36.1%
same,"viability, T/C",[19],95.8%
same,"viability, T/C",[20],86.3%
same,"viability, T/C",[21],73.6%
same,"viability, T/C",[22],57.4%
same,"viability, T/C",[23],55%
same,"viability, T/C",[24],39.7%
same,"viability, T/C",[25],77.4%
same,"viability, T/C",[26],85.1%
same,"viability, T/C",[27],78.8%
same,"viability, T/C",[28],58.2%
same,"viability, T/C",[29],49.7%
same,"viability, T/C",[30],37%
same,"viability, T/C",[31],70.5%
same,"viability, T/C",[32],82%
same,"viability, T/C",[33],73%
same,"viability, T/C",[34],52.4%
same,"viability, T/C",[35],43.3%
same,"viability, T/C",[36],34.4%
O=c1[nH]cc(F)c(=O)[nH]1 + CN(C)c1ccc(Nc2c3ccc(NC(=O)CCN4CCCC4)cc3nc3cc(NC(=O)CCN4CCCC4)ccc23)cc1,pIC50,second compound 0.0316 µM,< 5.00
same,pIC50,second compound 0.1 µM,< 5.00
same,pIC50,second compound 0.316 µM,< 5.00
same,pIC50,second compound 1 µM,< 5.00
same,pIC50,second compound 3.16 µM,< 5.00
same,pIC50,second compound 10 µM,< 5.00
same,"viability, T/C",[1],96.8%
same,"viability, T/C",[2],86.5%
same,"viability, T/C",[3],97%
same,"viability, T/C",[4],84.5%
same,"viability, T/C",[5],82.2%
same,"viability, T/C",[6],66.2%
same,"viability, T/C",[7],99.7%
same,"viability, T/C",[8],74.6%
same,"viability, T/C",[9],104%
same,"viability, T/C",[10],75.5%
same,"viability, T/C",[11],71.2%
same,"viability, T/C",[12],72%
same,"viability, T/C",[13],88.6%
same,"viability, T/C",[14],79%
same,"viability, T/C",[15],75.4%
same,"viability, T/C",[16],88.9%
same,"viability, T/C",[17],67.3%
same,"viability, T/C",[18],68.4%
same,"viability, T/C",[19],88.6%
same,"viability, T/C",[20],77%
same,"viability, T/C",[21],86.5%
same,"viability, T/C",[22],79%
same,"viability, T/C",[23],70.8%
same,"viability, T/C",[24],67.9%
same,"viability, T/C",[25],78.8%
same,"viability, T/C",[26],79.4%
same,"viability, T/C",[27],86.2%
same,"viability, T/C",[28],88.1%
same,"viability, T/C",[29],65.9%
same,"viability, T/C",[30],53.6%
same,"viability, T/C",[31],91.3%
same,"viability, T/C",[32],108%
same,"viability, T/C",[33],93.8%
same,"viability, T/C",[34],84%
same,"viability, T/C",[35],75.2%
same,"viability, T/C",[36],76.6%
